According to PubChem BioAssay (NCI):
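96-well plates; 48 h exposure; 5 concentrations. Endpoints by linear interpolation between flanking doses. Not reached: highest tested concentration assigned. TGI: concentration producing complete growth inhibition.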

Columns and labels:
Test in all cases: NCI-60 cell line screen, 48 h
[1] = test system: NCI-H460 lung
[2] = test system: KM12 colon
[3] = test system: OVCAR-8 ovarian
[4] = test system: MDA-MB-231 breast
[5] = test system: HS 578T breast
[6] = test system: OVCAR-5 ovarian
[7] = test system: HL-60(TB) leukemia
[8] = test system: TK-10 renal
[9] = test system: NCI-H226 lung
[10] = test system: SK-MEL-2 melanoma
[11] = test system: BT-549 breast
[12] = test system: HOP-62 NSCLC
[13] = test system: HCT-116 colon
[14] = test system: NCI-H522 lung
[15] = test system: HCT-15 colon
[16] = test system: M14 melanoma
[17] = test system: MOLT-4 leukemia
[18] = test system: NCI-H23 lung
[19] = test system: K-562 leukemia
[20] = test system: RPMI-8226 leukemia
[21] = test system: SF-268 CNS
[22] = test system: A498 renal
[23] = test system: IGROV1 ovarian
[24] = test system: SNB-75 CNS
[25] = test system: SK-MEL-5 melanoma
[26] = test system: EKVX NSCLC
[27] = test system: CAKI-1 renal
[28] = test system: MDA-MB-435
[29] = test system: T-47D breast
[30] = test system: ACHN renal
[31] = test system: HCC-2998 colon
[32] = test system: SF-539 CNS
[33] = test system: DU-145 prostate
[34] = test system: 786-0 renal
[35] = test system: A549 NSCLC
[36] = test system: SR leukemia
[37] = test system: SW-620 colon
[38] = test system: UACC-257 melanoma
[39] = test system: HOP-92 NSCLC
[40] = test system: MDA-N
[41] = test system: SF-295 CNS
[42] = test system: PC-3 prostate
[43] = test system: OVCAR-3 ovarian
[44] = test system: NCI/ADR-RES ovarian
[45] = test system: HT29 colon
[46] = test system: SK-MEL-28 melanoma
[47] = test system: OVCAR-4 ovarian
[48] = test system: UO-31 renal
[49] = test system: LOX IMVI melanoma
[50] = test system: RXF 393 renal
[51] = test system: MCF7 breast
[52] = test system: U251 CNS
[53] = test system: SN12C renal
[54] = test system: SK-OV-3 ovarian
[55] = test system: UACC-62 melanoma
[56] = test system: MALME-3M melanoma
[57] = test system: SNB-19 CNS
[58] = test system: COLO 205 colon
[59] = test system: CCRF-CEM leukemia

## CC1(C)C2CCC1(C)[C@H](n1c(=O)n([C@@H]3CC4CCC3(C)C4(C)C)c(=O)n([C@@H]3CC4CCC3(C)C4(C)C)c1=O)C2
[1]
  TGI: > 100 µM
[2]
  TGI: > 100 µM
[3]
  TGI: > 100 µM
[4]
  TGI: > 100 µM
[5]
  TGI: > 100 µM
[6]
  TGI: > 100 µM
[7]
  TGI: 63.1 µM
[8]
  TGI: > 100 µM
[9]
  TGI: 76.4 µM
[10]
  TGI: 72.7 µM
[11]
  TGI: > 100 µM
[12]
  TGI: > 100 µM
[13]
  TGI: > 100 µM
[14]
  TGI: > 100 µM
[15]
  TGI: > 100 µM
[16]
  TGI: > 100 µM
[17]
  TGI: > 100 µM
[18]
  TGI: > 100 µM
[19]
  TGI: > 100 µM
[20]
  TGI: > 100 µM
[21]
  TGI: > 100 µM
[22]
  TGI: > 100 µM
[23]
  TGI: > 100 µM
[24]
  TGI: 46.5 µM
[25]
  TGI: > 100 µM
[26]
  TGI: 67.1 µM
[27]
  TGI: > 100 µM
[28]
  TGI: > 100 µM
[29]
  TGI: > 100 µM
[30]
  TGI: > 100 µM
[31]
  TGI: 57.5 µM
[32]
  TGI: 48.6 µM
[33]
  TGI: > 100 µM
[34]
  TGI: > 100 µM
[35]
  TGI: > 100 µM
[36]
  TGI: > 100 µM
[37]
  TGI: > 100 µM
[38]
  TGI: > 100 µM
[39]
  TGI: > 100 µM
[40]
  TGI: > 100 µM
[41]
  TGI: > 100 µM
[42]
  TGI: > 100 µM
[43]
  TGI: > 100 µM
[44]
  TGI: > 100 µM
[45]
  TGI: > 100 µM
[46]
  TGI: > 100 µM
[47]
  TGI: > 100 µM
[48]
  TGI: > 100 µM
[49]
  TGI: > 100 µM
[50]
  TGI: 55.8 µM
[51]
  TGI: > 100 µM
[52]
  TGI: > 100 µM

## CCN(CCCN(CC)C(=O)Nc1c(C)cccc1C)C(=O)Nc1c(C)cccc1C
[1]
  TGI: > 100 µM
[2]
  TGI: > 100 µM
[53]
  TGI: > 100 µM
[3]
  TGI: > 100 µM
[4]
  TGI: > 100 µM
[5]
  TGI: > 100 µM
[6]
  TGI: > 100 µM
[8]
  TGI: > 100 µM
[9]
  TGI: > 100 µM
[10]
  TGI: > 100 µM
[11]
  TGI: > 100 µM
[12]
  TGI: > 100 µM
[13]
  TGI: > 100 µM
[14]
  TGI: > 100 µM
[15]
  TGI: > 100 µM
[54]
  TGI: > 100 µM
[16]
  TGI: > 100 µM
[17]
  TGI: > 100 µM
[18]
  TGI: > 100 µM
[19]
  TGI: > 100 µM
[20]
  TGI: > 100 µM
[21]
  TGI: > 100 µM
[22]
  TGI: > 100 µM
[23]
  TGI: > 100 µM
[55]
  TGI: > 100 µM
[24]
  TGI: > 100 µM
[56]
  TGI: > 100 µM
[25]
  TGI: > 100 µM
[26]
  TGI: > 100 µM
[27]
  TGI: > 100 µM
[28]
  TGI: > 100 µM
[29]
  TGI: > 100 µM
[30]
  TGI: > 100 µM
[31]
  TGI: > 100 µM
[33]
  TGI: > 100 µM
[34]
  TGI: > 100 µM
[35]
  TGI: > 100 µM
[37]
  TGI: > 100 µM
[38]
  TGI: > 100 µM
[39]
  TGI: > 100 µM
[40]
  TGI: > 100 µM
[57]
  TGI: > 100 µM
[41]
  TGI: > 100 µM
[42]
  TGI: > 100 µM
[44]
  TGI: > 100 µM
[45]
  TGI: > 100 µM
[58]
  TGI: > 100 µM
[46]
  TGI: > 100 µM
[47]
  TGI: > 100 µM
[48]
  TGI: > 100 µM
[49]
  TGI: > 100 µM
[50]
  TGI: > 100 µM
[51]
  TGI: > 100 µM
[52]
  TGI: > 100 µM

## CCOC(=O)C1=C(C)C2C=C(c3cccs3)CC(c3ccc(Cl)cc3)=C2OC1=O (stereo not drawn)
[1]
  TGI: > 100 µM
[2]
  TGI: 39.8 µM
[53]
  TGI: > 100 µM
[3]
  TGI: > 100 µM
[4]
  TGI: > 100 µM
[5]
  TGI: > 100 µM
[6]
  TGI: > 100 µM
[7]
  TGI: 31.6 µM
[8]
  TGI: > 100 µM
[9]
  TGI: > 100 µM
[10]
  TGI: > 100 µM
[11]
  TGI: > 100 µM
[12]
  TGI: > 100 µM
[13]
  TGI: 69.2 µM
[14]
  TGI: > 100 µM
[15]
  TGI: 56.5 µM
[54]
  TGI: > 100 µM
[16]
  TGI: > 100 µM
[17]
  TGI: > 100 µM
[18]
  TGI: > 100 µM
[19]
  TGI: 34.4 µM
[20]
  TGI: 38 µM
[21]
  TGI: > 100 µM
[22]
  TGI: > 100 µM
[23]
  TGI: > 100 µM
[55]
  TGI: > 100 µM
[24]
  TGI: > 100 µM
[25]
  TGI: > 100 µM
[26]
  TGI: > 100 µM
[27]
  TGI: > 100 µM
[28]
  TGI: > 100 µM
[29]
  TGI: 66.5 µM
[59]
  TGI: 60.1 µM
[30]
  TGI: > 100 µM
[31]
  TGI: 77.3 µM
[33]
  TGI: > 100 µM
[34]
  TGI: 67.1 µM
[35]
  TGI: > 100 µM
[36]
  TGI: 50 µM
[37]
  TGI: > 100 µM
[38]
  TGI: > 100 µM
[39]
  TGI: > 100 µM
[40]
  TGI: > 100 µM
[57]
  TGI: > 100 µM
[41]
  TGI: > 100 µM
[42]
  TGI: > 100 µM
[43]
  TGI: > 100 µM
[44]
  TGI: > 100 µM
[45]
  TGI: > 100 µM
[58]
  TGI: > 100 µM
[46]
  TGI: > 100 µM
[47]
  TGI: > 100 µM
[48]
  TGI: > 100 µM
[49]
  TGI: 37.9 µM
[50]
  TGI: > 100 µM
[51]
  TGI: > 100 µM
[52]
  TGI: > 100 µM
